Patent US12281363B2, “Methods for detecting antiviral-drug resistant virus” (Secretary of State for Health and Social Care, priority 2018, dated 2025)
Where two headings read alike, the source gives them in different places.

Tested on: HSV-1
Assay: Plaque reduction assay, HSV-1 clinical isolates on Vero cells
Format: cell-based
Settings: Human alphaherpesvirus 1, Vero
Outline: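 Susceptibility of HSV-1 isolates was read as percent plaque reduction versus no-drug control, counted on fixed, crystal-violet-stained sub-confluent Vero cells infected at 75 PFU/well beneath CMC. Intermediate resistance lies between cut-offs ACV <3/>40 μM, PCV <10/>40 μM, CDV <24/>30 μM, FOS <250/>400 μM.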

## Nc1nc2c(ncn2CCC(CO)CO)c(=O)[nH]1 [Penciclovir, penciclovir]
Isolate HPG033, HSV-1 TK I358L (1072A>C), also TK T287M, read-out: Drug susceptibility (IC50 value)
  IC50: > 160 µM
Isolate HPG033, HSV-1 TK I358L (1072A>C), also TK T287M, read-out: Drug susceptibility Penciclovir (PCV)
  IC50: > 40 µM
Isolate HPG033, HSV-1 pol N1046T (3137A>C), also TK T287M, pol A1169T, read-out: Drug susceptibility (IC50 value)
  IC50: > 160 µM
Isolate HPG033, HSV-1 pol N1046T (3137A>C), also TK T287M, pol A1169T, read-out: Drug susceptibility Penciclovir (PCV)
  IC50: > 40 µM
Isolate HPG035, HSV-1 pol S239L (716C>T), also pol S724N, read-out: Drug susceptibility (IC50 value)
  IC50: 14.6 µM
Isolate HPG035, HSV-1 pol S239L (716C>T), also pol S724N, read-out: Drug susceptibility Penciclovir (PCV)
  IC50: 10 to 40 µM
Isolate HPG037, HSV-1 TK L69M (205>A), also TK Y239H, read-out: Drug susceptibility Penciclovir (PCV)
  IC50: > 40 µM
Isolate HPG037, HSV-1 TK R256W (766C>T), read-out: Drug susceptibility (IC50 value)
  IC50: > 160 µM
Isolate HPG037, HSV-1 TK R256W (766C>T), read-out: Drug susceptibility Penciclovir (PCV)
  IC50: > 40 µM
Isolate HPG037, HSV-1 TK Y239H (715T>C), read-out: Drug susceptibility (IC50 value)
  IC50: > 160 µM
Isolate HPG037, HSV-1 TK Y239H (715T>C), read-out: Drug susceptibility Penciclovir (PCV)
  IC50: > 40 µM
Isolate HPG039, HSV-1 TK 85* or H58fs (169delC, 170delC, 171delC, or 172delC), read-out: Drug susceptibility (IC50 value)
  IC50: 158 µM
Isolate HPG039, HSV-1 TK 85* or H58fs (169delC, 170delC, 171delC, or 172delC), read-out: Drug susceptibility Penciclovir (PCV)
  IC50: > 40 µM
Isolate HPG040, HSV-1 pol S911N (2732G>A), also TK deletion (C) nt 896-900, pol A1169T, read-out: Drug susceptibility (IC50 value)
  IC50: > 160 µM
Isolate HPG040, HSV-1 pol S911N (2732G>A), also TK deletion (C) nt 896-900, pol A1169T, read-out: Drug susceptibility Penciclovir (PCV)
  IC50: > 40 µM
Isolate HPG041, HSV-1 pol S911N (2732G>A), also pol A1169T, read-out: Drug susceptibility (IC50 value)
  IC50: 3 µM
Isolate HPG041, HSV-1 pol S911N (2732G>A), also pol A1169T, read-out: Drug susceptibility Penciclovir (PCV)
  IC50: < 10 µM
Isolate HPG042, HSV-1 pol A972V (2915C>T), also TK deletion (C) nt 881-885, pol A1169T, read-out: Drug susceptibility (IC50 value)
  IC50: > 160 µM
Isolate HPG042, HSV-1 pol A972V (2915C>T), also TK deletion (C) nt 881-885, pol A1169T, read-out: Drug susceptibility Penciclovir (PCV)
  IC50: > 40 µM
Isolate HPG042, HSV-1 pol G22R (64G>A), also TK deletion (C) nt 881-885, pol A1169T, read-out: Drug susceptibility (IC50 value)
  IC50: > 160 µM
Isolate HPG042, HSV-1 pol G22R (64G>A), also TK deletion (C) nt 881-885, pol A1169T, read-out: Drug susceptibility Penciclovir (PCV)
  IC50: > 40 µM
Isolate HPG043, HSV-1 TK 183* (437_438insA), read-out: Drug susceptibility (IC50 value)
  IC50: > 160 µM
Isolate HPG043, HSV-1 TK 183* (437_438insA), read-out: Drug susceptibility Penciclovir (PCV)
  IC50: > 40 µM
Isolate HPG045, HSV-1 TK L49R (146T>G), read-out: Drug susceptibility (IC50 value)
  IC50: > 160 µM
Isolate HPG045, HSV-1 TK L49R (146T>G), read-out: Drug susceptibility Penciclovir (PCV)
  IC50: > 40 µM
Isolate HPG045, HSV-1 pol L419I (1255C>A), also TK L49R, pol A1169T, read-out: Drug susceptibility (IC50 value)
  IC50: > 160 µM
Isolate HPG045, HSV-1 pol L419I (1255C>A), also TK L49R, pol A1169T, read-out: Drug susceptibility Penciclovir (PCV)
  IC50: > 40 µM
Isolate HPG046, HSV-1 TK I166N (497T>A), read-out: Drug susceptibility (IC50 value)
  IC50: 98.5 µM
Isolate HPG046, HSV-1 TK I166N (497T>A), read-out: Drug susceptibility Penciclovir (PCV)
  IC50: > 40 µM
Isolate HPG047, HSV-1 pol E680 (2039A>C), also TK deletion (C) nt 548-553, pol A1169T, read-out: Drug susceptibility Penciclovir (PCV)
  IC50: > 40 µM
Isolate HPG050, HSV-1 TK Q34* (100C>T), read-out: Drug susceptibility (IC50 value)
  IC50: > 160 µM
Isolate HPG050, HSV-1 TK Q34* (100C>T), read-out: Drug susceptibility Penciclovir (PCV)
  IC50: > 40 µM
Isolate HPG051, HSV-1 pol D83A (248A>C), also TK R176stop, read-out: Drug susceptibility (IC50 value)
  IC50: > 160 µM
Isolate HPG051, HSV-1 pol D83A (248A>C), also TK R176stop, read-out: Drug susceptibility Penciclovir (PCV)
  IC50: > 40 µM
Isolate HPG052, HSV-1 TK Q34* (100C>T), read-out: Drug susceptibility (IC50 value)
  IC50: 25 µM
Isolate HPG052, HSV-1 TK Q34* (100C>T), read-out: Drug susceptibility Penciclovir (PCV)
  IC50: 10 to 40 µM
Isolate HPG053, HSV-1 pol L802R + A834S (2405T>G, 2500G>T), also TK R176W, read-out: Drug susceptibility Penciclovir (PCV)
  IC50: > 40 µM
Isolate HPG053, HSV-1 pol S911N (2732G>A), also TK R176W, pol A1169T, read-out: Drug susceptibility (IC50 value)
  IC50: > 160 µM
Isolate HPG053, HSV-1 pol S911N (2732G>A), also TK R176W, pol A1169T, read-out: Drug susceptibility Penciclovir (PCV)
  IC50: > 40 µM
Isolate HPG054, HSV-1 pol E992K (2974G>A), also TK insert (G) nt 430-436, pol A1169T, read-out: Drug susceptibility (IC50 value)
  IC50: > 160 µM
Isolate HPG054, HSV-1 pol E992K (2974G>A), also TK insert (G) nt 430-436, pol A1169T, read-out: Drug susceptibility Penciclovir (PCV)
  IC50: > 40 µM
Isolate HPG055, HSV-1 TK V204G (611T>G), also pol A1169AT, read-out: Drug susceptibility (IC50 value)
  IC50: 9.34 µM
Isolate HPG055, HSV-1 TK V204G (611T>G), also pol A1169AT, read-out: Drug susceptibility Penciclovir (PCV)
  IC50: < 10 µM
read-out: Drug susceptibility (IC50 value), isolate HPG005, HSV-1 TK A192T (574G>A)
  IC50: 5.19 µM
read-out: Drug susceptibility (IC50 value), isolate HPG006, HSV-1 pol G121S (361G>A), also a TK resistance mutation (footnote a)
  IC50: > 160 µM
read-out: Drug susceptibility (IC50 value), isolate HPG012, HSV-1 pol G985E (2954G>A), also TK A93V
  IC50: 9.67 µM
read-out: Drug susceptibility (IC50 value), isolate HPG016, HSV-1 pol A1169T (3505G>A)
  IC50: 7.19 µM
read-out: Drug susceptibility (IC50 value), isolate HPG037, HSV-1 TK L69M (205>A), also TK Y239H
  IC50: > 160 µM
read-out: Drug susceptibility (IC50 value), isolate HPG042, HSV-1 TK frameshift (881delC to 885delC)
  IC50: > 160 µM
read-out: Drug susceptibility (IC50 value), isolate HPG047, HSV-1 pol E680 (2039A>C), also TK deletion (C) nt 548-553, pol A1169T
  IC50: > 160 µM
read-out: Drug susceptibility Penciclovir (PCV), isolate HPG005, HSV-1 TK A192T (574G>A)
  IC50: < 10 µM
read-out: Drug susceptibility Penciclovir (PCV), isolate HPG006, HSV-1 pol G121S (361G>A), also a TK resistance mutation (footnote a)
  IC50: > 40 µM
read-out: Drug susceptibility Penciclovir (PCV), isolate HPG012, HSV-1 pol G985E (2954G>A), also TK A93V
  IC50: 10 to 40 µM
read-out: Drug susceptibility Penciclovir (PCV), isolate HPG016, HSV-1 pol A1169T (3505G>A)
  IC50: < 10 µM
read-out: Drug susceptibility Penciclovir (PCV), isolate HPG042, HSV-1 TK frameshift (881delC to 885delC)
  IC50: > 40 µM
